Counter-ions that a name gives are not always drawn. Like-named read-outs stand apart in the source and are kept apart here.
Tests used:
Aβ1-40 = Aβ1-40 content in conditioned medium of primary cortico-hippocampal neuron cultures from Tg2576 mice (ELISA; primary and secondary dose-response screening); assay type: cell-based, mouse; details: for activity at 100 µM: Mus musculus, Neuron, 24 h, drug 100 μM, read-out: Ab1-40 (% of ctl); for reduced Aβ1-40: <85% of ctl
How it was run: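 Primary cortico-hippocampal neurons from embryonic Tg2576 mice were plated at 1.0×10^5 cells per well on poly-D-lysine-coated 96-well plates in Neurobasal with 2% B27, 0.5 mM L-glutamine and 1% penicillin-streptomycin. Cultures received drug in 1% DMSO, and Aβ1-40 in the conditioned medium was measured by BioSource ELISA 24 hours after treatment, relative to vehicle controls.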

[1] = test system: primary cortico-hippocampal neuron cultures; assay: lactate dehydrogenase (LDH) activity assay in parallel neuron cultures
Method: For in vitro treatments drugs available from “The Spectrum Collection” in stocks of 10 mM in DMSO were applied directly to cultures to the desired concentrations (final 1% DMSO); control primary neuron cultures from Tg2576 embryos were treated with vehicle resulting in a final 1% DMSO.
Cell viability was assessed using a commercial available LDH assay kit according to the manufacture's instruction (Promega).

Aβ1-42 = Aβ1-42 content in conditioned medium of primary cortico-hippocampal neuron cultures from Tg2576 mice (ELISA; primary and secondary dose-response screening); assay type: cell-based, mouse; details: for activity at 100 µM: Mus musculus, Neuron, 24 h, drug 100 μM, read-out: Ab1-42 (% of ctl); for reducing Aβ1-42: <85% of ctl
How it was run: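 This screen tested cardiovascular drugs for Aβ-lowering in Tg2576 embryonic cortico-hippocampal neuron cultures plated at 1.0×10^5 cells per well in poly-D-lysine-coated 96-well plates with Neurobasal/B27 medium. Drugs at 100 μM were added directly to the medium in duplicate, with 1% DMSO alone as the control. Conditioned medium was then collected, and its Aβ1-42 level was quantified with BioSource ELISA kits.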

[2] = test system: primary cortico-hippocampal neuron cultures; assay: MTT in primary screening
[3] = Primary Screening, table sorted by Aβ1-40
[4] = primary screening, Tg2576 neuron cultures, table sorted by Aβ1-42
[5] = primary screening, table sorted by Aβ1-42

NS(=O)(=O)c1cc2c(cc1Cl)NCNS2(=O)=O [Hydrochlorothiazide]
activity at 100 µM (Aβ1-40; [3]): 89.5%
activity at 100 µM (Aβ1-40; [4]): 89.5%
LDH (% of ctl) [1, 3]: 281.1 % of ctl
LDH (% of ctl) [1, 5]: 281.1 % of ctl
activity at 100 µM (Aβ1-42; [3]): 116%
activity at 100 µM (Aβ1-42; [4]): 116%
MTT (% of ctl) [2, 3]: 102.1 % of ctl
MTT (% of ctl) [2, 5]: 102.1 % of ctl

O=C(O)c1cccnc1 [Niacin]
activity at 100 µM (Aβ1-40; [3]): 101%
activity at 100 µM (Aβ1-40; [4]): 101%
LDH (% of ctl) [1, 3]: 134.5 % of ctl
LDH (% of ctl) [1, 5]: 134.5 % of ctl
activity at 100 µM (Aβ1-42; [3]): 95%
activity at 100 µM (Aβ1-42; [4]): 95%
MTT (% of ctl) [2, 3]: 61.0 % of ctl
MTT (% of ctl) [2, 5]: 61.0 % of ctl

CC(C)(Sc1cc(C(C)(C)C)c(O)c(C(C)(C)C)c1)Sc1cc(C(C)(C)C)c(O)c(C(C)(C)C)c1 [Probucol]
activity at 100 µM (Aβ1-40; [3]): 76.8%
activity at 100 µM (Aβ1-40; [4]): 76.8%
reduced Aβ1-40 (Aβ1-40; primary screening): reduced Aβ1-40
LDH (% of ctl) [1, 3]: 109.3 % of ctl
LDH (% of ctl) [1, 5]: 109.3 % of ctl
activity at 100 µM (Aβ1-42; [3]): 136%
activity at 100 µM (Aβ1-42; [4]): 136%
MTT (% of ctl) [2, 3]: 94.8 % of ctl
MTT (% of ctl) [2, 5]: 94.8 % of ctl

CC1=NS(=O)(=O)c2cc(Cl)ccc2N1 [Diazoxide]
activity at 100 µM (Aβ1-40; [3]): 114%
activity at 100 µM (Aβ1-40; [4]): 114%
LDH (% of ctl) [1, 3]: 112.0 % of ctl
LDH (% of ctl) [1, 5]: 112.0 % of ctl
activity at 100 µM (Aβ1-42; [3]): 98.9%
activity at 100 µM (Aβ1-42; [4]): 98.9%
MTT (% of ctl) [2, 3]: 97.8 % of ctl
MTT (% of ctl) [2, 5]: 97.8 % of ctl

C[C@@H]1CCC[C@H](C)N1NC(=O)c1ccc(Cl)c(S(N)(=O)=O)c1 [Clopamide]
activity at 100 µM (Aβ1-40; [3]): 92%
activity at 100 µM (Aβ1-40; [4]): 92%
LDH (% of ctl) [1, 3]: 99.9 % of ctl
LDH (% of ctl) [1, 5]: 99.9 % of ctl
activity at 100 µM (Aβ1-42; [3]): 98.9%
activity at 100 µM (Aβ1-42; [4]): 98.9%
MTT (% of ctl) [2, 3]: 99.2 % of ctl
MTT (% of ctl) [2, 5]: 99.2 % of ctl

CCCC(=O)Nc1ncnc2c1ncn2[C@@H]1O[C@@H]2COP(=O)(O)O[C@H]2[C@H]1OC(=O)CCC [Bucladesine]
activity at 100 µM (Aβ1-40; [3]): 85.3%
activity at 100 µM (Aβ1-40; [4]): 85.3%
LDH (% of ctl) [1, 3]: 357.1 % of ctl
LDH (% of ctl) [1, 5]: 357.1 % of ctl
activity at 100 µM (Aβ1-42; [3]): 69.9%
activity at 100 µM (Aβ1-42; [4]): 69.9%
reducing Aβ1-42 (Aβ1-42; primary screening): useful in reducing Aβ1-42
MTT (% of ctl) [2, 3]: 97.2 % of ctl
MTT (% of ctl) [2, 5]: 97.2 % of ctl

COc1ccccc1N1CCN(CCCNc2cc(=O)n(C)c(=O)n2C)CC1 [Urapidil]
activity at 100 µM (Aβ1-40; [3]): 96.4%
activity at 100 µM (Aβ1-40; [4]): 96.4%
LDH (% of ctl) [1, 3]: 97.1 % of ctl
LDH (% of ctl) [1, 5]: 97.1 % of ctl
activity at 100 µM (Aβ1-42; [3]): 114%
activity at 100 µM (Aβ1-42; [4]): 114%
MTT (% of ctl) [2, 3]: 103.4 % of ctl
MTT (% of ctl) [2, 5]: 103.4 % of ctl

c1ccc(CC2=NCCN2)cc1 [Tolazoline Hydrochloride]
activity at 100 µM (Aβ1-40; [3]): 90.8%
activity at 100 µM (Aβ1-40; [4]): 90.8%
LDH (% of ctl) [1, 3]: 112.5 % of ctl
LDH (% of ctl) [1, 5]: 112.5 % of ctl
activity at 100 µM (Aβ1-42; [3]): 99.6%
activity at 100 µM (Aβ1-42; [4]): 99.6%
MTT (% of ctl) [2, 3]: 97.5 % of ctl
MTT (% of ctl) [2, 5]: 97.5 % of ctl

Cc1cc(C(C)(C)C)c(O)c(C)c1CC1=NCCN1 [Oxymetazoline Hydrochloride]
activity at 100 µM (Aβ1-40; [3]): 78%
activity at 100 µM (Aβ1-40; [4]): 78%
reduced Aβ1-40 (Aβ1-40; primary screening): reduced Aβ1-40
LDH (% of ctl) [1, 3]: 97.0 % of ctl
LDH (% of ctl) [1, 5]: 97.0 % of ctl
activity at 100 µM (Aβ1-42; [3]): 44.9%
activity at 100 µM (Aβ1-42; [4]): 44.9%
reducing Aβ1-42 (Aβ1-42; primary screening): useful in reducing Aβ1-42
MTT (% of ctl) [2, 3]: 97.3 % of ctl
MTT (% of ctl) [2, 5]: 97.3 % of ctl

CCOC(=O)[C@H](CCc1ccccc1)N[C@@H](C)C(=O)N1[C@H](C(=O)O)C[C@@H]2CCC[C@@H]21 [Ramipril]
activity at 100 µM (Aβ1-40; [3]): 107%
activity at 100 µM (Aβ1-40; [4]): 107%
LDH (% of ctl) [1, 3]: 96.4 % of ctl
LDH (% of ctl) [1, 5]: 96.4 % of ctl
activity at 100 µM (Aβ1-42; [3]): 105%
activity at 100 µM (Aβ1-42; [4]): 105%
MTT (% of ctl) [2, 3]: 102.9 % of ctl
MTT (% of ctl) [2, 5]: 102.9 % of ctl

CC[C@H]1CN2CC[C@H]1C[C@@H]2[C@@H](O)c1ccnc2ccc(OC)cc12 [Hydroquinidine]
activity at 100 µM (Aβ1-40; [3]): 96.5%
activity at 100 µM (Aβ1-40; [4]): 96.5%
LDH (% of ctl) [1, 3]: 102.2 % of ctl
LDH (% of ctl) [1, 5]: 102.2 % of ctl
activity at 100 µM (Aβ1-42; [3]): 121%
activity at 100 µM (Aβ1-42; [4]): 121%
MTT (% of ctl) [2, 3]: 103.6 % of ctl
MTT (% of ctl) [2, 5]: 103.6 % of ctl

C1CCC(C(CC2CCCCN2)C2CCCCC2)CC1 (stereo not shown) [Perhexiline Maleate]
activity at 100 µM (Aβ1-40; [3]): 4.8%
activity at 100 µM (Aβ1-40; [4]): 4.8%
reduced Aβ1-40 (Aβ1-40; primary screening): reduced Aβ1-40
LDH (% of ctl) [1, 3]: 1065.9 % of ctl
LDH (% of ctl) [1, 5]: 1065.9 % of ctl
activity at 100 µM (Aβ1-42; [3]): 26.2%
activity at 100 µM (Aβ1-42; [4]): 26.2%
reducing Aβ1-42 (Aβ1-42; primary screening): useful in reducing Aβ1-42
MTT (% of ctl) [2, 3]: 7.2 % of ctl
MTT (% of ctl) [2, 5]: 7.2 % of ctl

CCCCC1=NC2(CCCC2)C(=O)N1Cc1ccc(-c2ccccc2-c2nnn[nH]2)cc1 [Irbesartan]
activity at 100 µM (Aβ1-40; [3]): 89.7%
activity at 100 µM (Aβ1-40; [4]): 89.7%
LDH (% of ctl) [1, 3]: 112.5 % of ctl
LDH (% of ctl) [1, 5]: 112.5 % of ctl
activity at 100 µM (Aβ1-42; [3]): 82.3%
activity at 100 µM (Aβ1-42; [4]): 82.3%
reducing Aβ1-42 (Aβ1-42; primary screening): useful in reducing Aβ1-42
MTT (% of ctl) [2, 3]: 98.9 % of ctl
MTT (% of ctl) [2, 5]: 98.9 % of ctl

O=c1oc2c(O)c(O)cc3c(=O)oc4c(O)c(O)cc1c4c23 [Ellagic Acid]
activity at 100 µM (Aβ1-40; [3]): 96.6%
activity at 100 µM (Aβ1-40; [4]): 96.6%
LDH (% of ctl) [1, 3]: 109.2 % of ctl
LDH (% of ctl) [1, 5]: 109.2 % of ctl
activity at 100 µM (Aβ1-42; [3]): 94%
activity at 100 µM (Aβ1-42; [4]): 94%
MTT (% of ctl) [2, 3]: 85.2 % of ctl
MTT (% of ctl) [2, 5]: 85.2 % of ctl

O=C1c2ccccc2C(=O)C1c1ccccc1 [Phenindione]
activity at 100 µM (Aβ1-40; [3]): 104%
activity at 100 µM (Aβ1-40; [4]): 104%
LDH (% of ctl) [1, 3]: 107.9 % of ctl
LDH (% of ctl) [1, 5]: 107.9 % of ctl
activity at 100 µM (Aβ1-42; [3]): 105%
activity at 100 µM (Aβ1-42; [4]): 105%
MTT (% of ctl) [2, 3]: 108.8 % of ctl
MTT (% of ctl) [2, 5]: 108.8 % of ctl

Fc1ccc(C(c2ccc(F)cc2)N2CCN(C/C=C/c3ccccc3)CC2)cc1 [Flunarizine Hydrochloride]
activity at 100 µM (Aβ1-40; [3]): 42.1%
activity at 100 µM (Aβ1-40; [4]): 42.1%
reduced Aβ1-40 (Aβ1-40; primary screening): reduced Aβ1-40
LDH (% of ctl) [1, 3]: 120.4 % of ctl
LDH (% of ctl) [1, 5]: 120.4 % of ctl
activity at 100 µM (Aβ1-42; [3]): 53.3%
activity at 100 µM (Aβ1-42; [4]): 53.3%
reducing Aβ1-42 (Aβ1-42; primary screening): useful in reducing Aβ1-42
MTT (% of ctl) [2, 3]: 59.4 % of ctl
MTT (% of ctl) [2, 5]: 59.4 % of ctl

CC(N)CCCC(C)(C)O (stereo not shown) [Heptaminol Hydrochloride]
activity at 100 µM (Aβ1-40; [3]): 112%
activity at 100 µM (Aβ1-40; [4]): 112%
LDH (% of ctl) [1, 3]: 103.4 % of ctl
LDH (% of ctl) [1, 5]: 103.4 % of ctl
activity at 100 µM (Aβ1-42; [3]): 105%
activity at 100 µM (Aβ1-42; [4]): 105%
MTT (% of ctl) [2, 3]: 103.4 % of ctl
MTT (% of ctl) [2, 5]: 103.4 % of ctl

From patent US20100029654A1, “CARDIOVASCULAR COMPOSITIONS AND USE OF THE SAME FOR THE TREATMENT OF ALZHEIMER'S DISEASE” (MOUNT SINAI SCHOOL OF MEDICINE, priority 2006, published 2010)
